# Target: T1, human HPK1 protein (Homo sapiens, UniProt Q92918)
# T1 construct: recombinant human HPK1 protein (a.a. 1-346) was expressed in Sf9 insect cells; GST (N); purchased Signalchem M23-11G; host or cells: Sf9 insect cells (baculovirus)
# T1 sequence (Q92918 1-346): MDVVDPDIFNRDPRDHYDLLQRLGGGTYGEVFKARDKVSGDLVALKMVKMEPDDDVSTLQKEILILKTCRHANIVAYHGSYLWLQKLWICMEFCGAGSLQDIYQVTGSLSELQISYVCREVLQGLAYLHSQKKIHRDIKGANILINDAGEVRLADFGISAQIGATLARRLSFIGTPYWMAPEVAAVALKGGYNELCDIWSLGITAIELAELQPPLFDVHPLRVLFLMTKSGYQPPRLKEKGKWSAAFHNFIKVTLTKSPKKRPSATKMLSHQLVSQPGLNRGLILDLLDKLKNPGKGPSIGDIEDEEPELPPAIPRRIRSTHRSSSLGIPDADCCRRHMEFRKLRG
# Assay: Human HPK1 protein TR-FRET assay
# Type: biochemical
# Conditions: 1 mM ATP, Table 19
# Description: Exemplary compounds from the above Examples were tested for ability to inhibit HPK1 using a human HPK1 protein TR-FRET Assay. Assay procedures and results are described below.
# N-terminal GST-tagged recombinant human HPK1 protein (a.a. 1-346) was expressed in Sf9 insect cells using a baculovirus expression system (Signalchem Catalog #M23-11G). The enzyme was diluted in assay buffer (50 mM Tris pH 7.5, 1 mM MgCl2, 0.01% NP-40 and 2 mM DTT) to obtain a 4× working solution at a concentration of 40 nM HPK1 enzyme.
# A 5 μM stock of ULight™ CREBtide peptide RRPSYRK (Perkin Elmer Product No. TRF0107-M) derived from human cAMP Response Element Binding (CREB) Protein was prepared in storage buffer containing 50 mM Tris-HCl (pH 7.4), 0.9% NaCl, 0.1% BSA, and 0.05% sodium azide. The CREBtide substrate was diluted in assay buffer (50 mM Tris pH 7.5, 1 mM MgCl2, 0.01% NP-40, 2 mM DTT) with 2 mM ATP to a final concentration of 200 nM CREBtide peptide to obtain a 2× working solution of substrate. HPK1 enzyme and CREBtide substrate solutions were mixed with compounds diluted in DMSO to obtain a final concentration of enzyme, substrate, and ATP of 10 nM, 100 nM, and 1 mM, respectively, in 1% DMSO. The final assay mixture was incubated at room temperature for 60 minutes.
# A solution of Europium-labeled anti-phospho-CREB (Ser133) antibody (Perkin Elmer Product No. TRF0200-M), EDTA and LANCE™ Detection Buffer (Perkin Elmer Product No. CR97-100) were added to each well to obtain a final concentration of 2 nM antibody, 10 mM EDTA and 1× LANCE buffer. The resulting mixture was incubated at room temperature for 60 minutes.
# The fluorescence resonance energy transfer (FRET) signal was measured on an Envision plate reader: Excitation filter=340 nm, APC emission=665 nm, Europium emission=615 nm, dichroic mirror=D400/D630, delay time=100 μs, and integration time=200 μs. The half maximal inhibitory concentration (IC50) values for compounds were calculated from the quotient of the fluorescence signal at 665 nm divided by the fluorescence signal at 615 nm. The quotient of the fluorescence signals in the presence of DMSO without compound is set as 100 percent enzymatic activity. A 4-parameter logistic model in PRISM (GraphPad) was used to calculate the IC50 for a given compound.
row,Structure (SMILES),IC50 [nM]
1,Cc1cc2c(Oc3ccc4c(c3)[C@H](C)N(C(=O)Nc3cnc(OC5CCCN(C)C5)c(C(F)(F)F)c3)CC4)ccnc2[nH]1 (mixture of isomers) [VI-6],500 to 5000
2,Cc1cc2c(Oc3ccc4c(c3)[C@H](C)N(C(=O)Nc3cnc(OC5CCCN(C)CC5)c(C(F)(F)F)c3)CC4)ccnc2[nH]1 (mixture of isomers) [VI-13],500 to 5000
3,"CCN1CCN(Cc2ccc(NC(=O)N3Cc4cc(Oc5ccnc6[nH]ccc56)ccc4C(C)C3)cc2C(F)(F)F)CC1 (single isomer, unassigned) [IV-2]",< 500
4,"CCN1CCN(Cc2ccc(NC(=O)N3CCc4c(C)cc(Oc5ccnc6[nH]ccc56)cc4C3C)cc2C(F)(F)F)CC1 (single isomer, unassigned) [IV-4]",< 500
5,"CCN1CCN(Cc2ccc(NC(=O)N3CCc4cc(F)c(Oc5ccnc6[nH]ccc56)cc4C3C)cc2C(F)(F)F)CC1 (single isomer, unassigned) [IV-6]",< 500
6,"CCN1CCN(Cc2ccc(NC(=O)N3CCc4cc(F)c(Oc5ccnc6[nH]c(C)cc56)cc4C3C)cc2C(F)(F)F)CC1 (single isomer, unassigned) [IV-25]",< 500
7,"Cc1cc2c(Oc3ccc4c(c3)CN(C(=O)Nc3cnc(OC5CCN(C)CC5)c(C(F)(F)F)c3)CC4C)ccnc2[nH]1 (single isomer, unassigned) [IV-39]",< 500
8,"Cc1cc2c(Oc3ccc4c(c3)CN(C(=O)Nc3cnc(OC5CCN(C)CC5)c(C(F)(F)F)c3)CC4C)ccnc2[nH]1 (single isomer, unassigned) [IV-40]",< 500
9,"CCN1CCN(Cc2ccc(NC(=O)N3Cc4cc(Nc5ccnc(NC)c5)cnc4C(C)C3)cc2C(F)(F)F)CC1 (single isomer, unassigned) [IX-2]",500 to 5000
10,"CCN1CCN(Cc2ccc(NC(=O)N3Cc4cc(Nc5ccnc(NC)c5)cnc4C(C)C3)cc2C(F)(F)F)CC1 (single isomer, unassigned) [IX-3]",5000 to 10000
11,Cc1cc2c(Oc3ccc4c(c3)[C@H](C)N(C(=O)Nc3cnc(OC5CCN(C)CC5C)c(C(F)(F)F)c3)CC4)ccnc2[nH]1 (stereo in doubt) [VI-4],500 to 5000
12,Cc1cc2c(Oc3ccc4c(c3)[C@H](C)N(C(=O)Nc3cnc(OC5CCN(C)CC5C)c(C(F)(F)F)c3)CC4)ccnc2[nH]1 (stereo in doubt) [VI-5],< 500
13,Cc1cc2c(Oc3ccc4c(c3)[C@H](C)N(C(=O)Nc3cnc(OC5CCN(C)CC5O)c(C(F)(F)F)c3)CC4)ccnc2[nH]1 (stereo in doubt) [VI-8],< 500
14,Cc1cc2c(Oc3ccc4c(c3)[C@H](C)N(C(=O)Nc3cnc(OC5CCN(C)CC5O)c(C(F)(F)F)c3)CC4)ccnc2[nH]1 (stereo in doubt) [VI-9],500 to 5000
15,Cc1cc2c(Oc3ccc4c(c3)[C@H](C)N(C(=O)Nc3cnc(OC5CCN(C)CC5F)c(C(F)(F)F)c3)CC4)ccnc2[nH]1 (stereo in doubt) [VI-10],500 to 5000
16,Cc1cc2c(Oc3ccc4c(c3)[C@H](C)N(C(=O)Nc3cnc(OC5CCN(C)CC5F)c(C(F)(F)F)c3)CC4)ccnc2[nH]1 (stereo in doubt) [VI-11],500 to 5000
17,CCN1CCN(Cc2ccc(NC(=O)N3CCc4ccc(Oc5cc(NC)ncn5)cc4C3)cc2C(F)(F)F)CC1 [II-1],< 500
18,CCN1CCN(Cc2ccc(NC(=O)N3CCc4ccc(Oc5ncnn6cc(-c7cnn(C)c7)cc56)cc4C3)cc2C(F)(F)F)CC1 [II-2],< 500
19,CCN1CCN(Cc2ccc(NC(=O)N3CCc4ccc(Oc5ncnc6[nH]ccc56)cc4C3)cc2C(F)(F)F)CC1 [II-3],< 500

# Further lines, results first:
row,IC50 [nM],Structure (SMILES)
1,< 500,"CCN1CCN(Cc2ccc(NC(=O)N3Cc4cc(Oc5ccnc6[nH]c(C)cc56)cnc4C(C)C3)cc2C(F)(F)F)CC1 (single isomer, unassigned) [VII-4]"
2,< 500,"CCN1CCN(Cc2ccc(NC(=O)N3Cc4cc(Oc5ccnc6[nH]c(C)cc56)cnc4C(C)C3)cc2C(F)(F)F)CC1 (single isomer, unassigned) [VII-5]"
3,< 500,"Cc1cc2c(Oc3cnc4c(c3)CN(C(=O)Nc3cnc(OC5CCN(C)CC5)c(C(F)(F)F)c3)CC4C)ccnc2[nH]1 (single isomer, unassigned) [VII-7]"
4,< 500,"Cc1cc2c(Oc3cnc4c(c3)CN(C(=O)Nc3cnc(OC5CCN(C)CC5)c(C(F)(F)F)c3)CC4C)ccnc2[nH]1 (single isomer, unassigned) [VII-8]"
5,< 500,"CCN1CCN(Cc2ccc(NC(=O)N3Cc4cc(Oc5ccnc6[nH]c(C)cc56)cnc4C(C)C3)cc2C(F)(F)F)CC1 (single isomer, unassigned) [VII-20]"
6,< 500,"CCN1CCN(Cc2ccc(NC(=O)N3Cc4cc(Oc5ccnc6[nH]c(C)cc56)cnc4C(C)C3)cc2C(F)(F)F)CC1 (single isomer, unassigned) [VII-21]"
7,< 500,"CCC1CN(C(=O)Nc2ccc(CN3CCN(CC)CC3)c(C(F)(F)F)c2)Cc2cc(Oc3ccnc4[nH]c(C)cc34)cnc21 (single isomer, unassigned) [VII-22]"
8,< 500,"CCC1CN(C(=O)Nc2ccc(CN3CCN(CC)CC3)c(C(F)(F)F)c2)Cc2cc(Oc3ccnc4[nH]c(C)cc34)cnc21 (single isomer, unassigned) [VII-23]"
9,< 500,"CCN1CCN(Cc2ccc(NC(=O)N3CCc4ncc(Oc5ccnc6[nH]c(C)cc56)cc4C3C)cc2C(F)(F)F)CC1 (single isomer, unassigned) [VIII-2]"
10,500 to 5000,"CCN1CCN(Cc2ccc(NC(=O)N3CCc4ncc(Oc5ccnc6[nH]ncc56)cc4C3C)cc2C(F)(F)F)CC1 (single isomer, unassigned) [VIII-4]"
11,500 to 5000,"CCN1CCN(Cc2ccc(NC(=O)N3CCc4ncc(Oc5ccnc6[nH]ncc56)cc4C3C)cc2C(F)(F)F)CC1 (single isomer, unassigned) [VIII-5]"

# Same assay, conditions: 1 mM ATP, Table 20
row,IC50 [nM],Structure (SMILES)
1,< 500,"CCN1CCN(Cc2ccc(NC(=O)N3CCc4ncc(Oc5ccnc6[nH]c(C)cc56)cc4C3C)cc2C(F)(F)F)CC1 (single isomer, unassigned) [XI-9]"
2,< 500,"CCN1CCN(Cc2ccc(NC(=O)N3Cc4cc(Oc5ccnc6c5CCC(=O)N6)cnc4C(C)C3)cc2C(F)(F)F)CC1 (single isomer, unassigned) [XIV-1]"
3,< 500,"CCN1CCN(Cc2ccc(NC(=O)N3Cc4cc(Oc5ccnc6[nH]c(=O)ccc56)cnc4C(C)C3)cc2C(F)(F)F)CC1 (single isomer, unassigned) [XIV-2]"
4,500 to 5000,"CCN1CCN(Cc2ccc(NC(=O)N3Cc4cc(Oc5ccnc6[nH]c(=O)cnc56)cnc4C(C)C3)cc2C(F)(F)F)CC1 (single isomer, unassigned) [XIV-7]"
5,500 to 5000,"CCN1CCN(Cc2ccc(NC(=O)N3Cc4cc(Oc5ccnc6ncc(=O)[nH]c56)cnc4C(C)C3)cc2C(F)(F)F)CC1 (single isomer, unassigned) [XIV-8]"
6,< 500,"CCN1CCN(Cc2ccc(NC(=O)N3Cc4cc(Oc5ccnc6[nH]c(=O)[nH]c56)cnc4C(C)C3)cc2C(F)(F)F)CC1 (single isomer, unassigned) [XIV-12]"
7,< 500,"CCN1CCN(Cc2ccc(NC(=O)N3Cc4cc(Oc5ccnc6[nH]c(C7CC7)nc56)cnc4C(C)C3)cc2C(F)(F)F)CC1 (single isomer, unassigned) [XIV-15]"
8,500 to 5000,"CCN1CCN(Cc2ccc(NC(=O)N3Cc4cc(Oc5ccnc(NCCO)c5)cnc4C(C)C3)cc2C(F)(F)F)CC1 (single isomer, unassigned) [XIV-16]"
9,> 10000,"CCN1CCN(Cc2ccc(NC(=O)N3Cc4cc(Oc5ccnc6[nH]nnc56)cnc4C(C)C3)cc2C(F)(F)F)CC1 (single isomer, unassigned) [XIV-17]"
10,5000 to 10000,"CCN1CCN(Cc2ccc(NC(=O)N3Cc4cc(Oc5cc(N)ncc5F)cnc4C(C)C3)cc2C(F)(F)F)CC1 (single isomer, unassigned) [XIV-18]"
11,5000 to 10000,"CCN1CCN(Cc2ccc(NC(=O)N3Cc4cc(Oc5ccnc6[nH]c(C)nc56)cnc4C(C)C3)cc2C(F)(F)F)CC1 (single isomer, unassigned) [XIV-27]"
12,< 500,"CCN1CCN(Cc2ccc(NC(=O)N3Cc4cc(Oc5ccnc6[nH]c(-c7cnn(C)c7)nc56)cnc4C(C)C3)cc2C(F)(F)F)CC1 (single isomer, unassigned) [XIV-30]"
